This is an account of results in PubChem BioAssay (NCI).

Structures are written as SMILES. “And” between values parts separate entries of the source, which are not always exact repeats. Equal values may be shown once.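 Following 48 hours of exposure in 96-well plates, responses at five concentrations were used to interpolate endpoints linearly. GI50 is the concentration that inhibits growth by half. TGI denotes the concentration required for complete inhibition of growth.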 Where only a bound is given, the exact number is not on record here.

Holding throughout (assay): growth of human tumour cells (NCI), 48 h
The subject of experiment [1] is NCI-H522 lung.
Experiment [2] relates to HCT-15 colon.
The test system of experiment [3] is MDA-MB-435.
The subject of experiment [4] is HCT-116 colon.
Experiment [5] deals with M14 melanoma.
Experiment [6] relates to HT29 colon.
For experiment [7], the system named is HCC-2998 colon.
Experiment [8] concerns NCI-H23 lung.
Experiment [9] deals with OVCAR-4 ovarian.
Experiment [10] relates to RXF 393 renal.

Consider `COc1cc(F)cc([C@@H](CO)NC(=O)[C@@H](C)N2Cc3ccc(-c4nc(NC5CCOCC5)ncc4Cl)cc3C2=O)c1`, for which the GI50 was 13.4 µM in experiment [1]; 6.08 µM in [2]; 0.0347 µM in experiment [3]; 0.0173 µM in experiment [4]; less than 0.01 µM in [5]; less than 0.01 µM in experiment [6]. The GI50 in experiment [7] was 0.0125 µM; in [8], less than 0.0133 µM; in experiment [9] it was 7.91 µM; in experiment [10], 0.205 µM. The TGI in experiment [1] is 60.4 µM; in experiment [2], greater than 86.7 µM; in [3], 31.8 µM; in experiment [4] it was greater than 54.9 µM; in experiment [5] it was 0.962 µM; in experiment [6], greater than 54.2 µM. The TGI in [7] is 57.5 µM; in experiment [8], 20.2 µM; in experiment [9], greater than 91.6 µM; in experiment [10] it was 19.8 µM.

With `COc1ccc2nc3cc([N+](=O)[O-])ccc3c(NCCCN(CCO)CCO)c2c1`, the GI50 was 1.36 µM in experiment [1]; 12.8 µM in experiment [2]; 2.27 µM in experiment [3]; 2.36 µM in experiment [4]; 2.36 µM in experiment [5]; 2.03 µM in experiment [6]. Besides, the GI50 was 2.87 µM in experiment [7], 6.43 µM in experiment [8], 3.81 µM in experiment [9] and 2.93 µM in [10]. For the same compound, the TGI in experiment [1] stood at 2.86 µM; in [2], 25.4 µM; in experiment [3], 5.67 µM; in experiment [4] it was 9.54 µM; in [5], 5.18 µM; in [6], 5.21 µM. The TGI in experiment [7] came out at 7.88 µM; in experiment [8] it was 14.2 µM; in [9] it was 11.4 µM; in experiment [10], 11.5 µM.

On to `O=C(NCCCCCCNC(=O)n1cc(F)c(=O)[nH]c1=O)NCCCOCCOCCOCCOCCOCCOCCOCCOCCOCCOCCOCCOCCOCCOCCOCCOCCOCCOCCOCCOCCOCCCNC(=O)C(O)C(O)C(OC1OC(CO)C(O)C(O)C1O)C(O)CO` (centres undefined), for which the TGI in experiment [1], in experiment [2], in experiment [3], in experiment [4], in experiment [5] and in experiment [6] was greater than 100 µM throughout. Further, the TGI in experiment [7] is greater than 87.2 µM; in experiment [8], greater than 100 µM; in experiment [9], greater than 100 µM; in [10], greater than 100 µM.

On to `O=CC(Br)C(Br)c1ccccc1` (centres undefined), for which the GI50 is 1.72 µM in experiment [1]; 0.913 µM in [2]; 1.74 µM in experiment [3]; 0.225 µM in experiment [4]; 2 µM in [5]; 1.71 µM in experiment [6]. Further, the GI50 was 15.1 µM in [7], 3.85 µM in experiment [8], 1.69 µM in experiment [9] and 1.82 µM in experiment [10]. Further, the TGI in experiment [1] amounted to 3.56 µM; in experiment [2], 2.93 µM; in [3], 3.63 µM; in [4] it was 0.523 µM; in experiment [5], 4.88 µM; in experiment [6], 3.19 µM. In addition, the TGI in experiment [7] was found to be 29.4 µM; in [8], 24.8 µM; in [9] it was 3.14 µM; in experiment [10] it was 3.78 µM.

Consider `COc1ccc(-c2nn(-c3cccc(Cl)c3)cc2-c2c(C#N)c(=O)n3[nH]c(-c4ccc(C)cc4)nc3c2C#N)cc1`, for which the GI50 was 1.45 µM in experiment [1]; 9.95 µM in experiment [2]; 1.48 µM in [3]; 1.24 µM in [4]; 1.66 µM in [5]; 1.49 µM in experiment [6]. For the same compound, the GI50 was 5.04 µM in experiment [7], 3.18 µM in experiment [8], 1.09 µM in [9] and 0.858 µM in [10]. Further, the TGI was 4.89 µM in [1]; greater than 50 µM in [2]; 7.9 µM in experiment [3]; 6 µM in experiment [4]; 6.67 µM in experiment [5]; greater than 50 µM in experiment [6]. Further, the TGI in [7] was determined as 10.8 µM; in experiment [8], 10.6 µM; in experiment [9], 4 µM; in experiment [10], 2.48 µM.

Take `CN1C(=O)C(=Cc2cn(Cc3ccccc3)c3ccccc23)C(=O)N(C)C1=O`: the GI50 in experiment [1] is greater than 100 µM; in experiment [2], greater than 95.6 µM; in experiment [3], greater than 83.3 µM; in experiment [4] it was 11.1 µM; in experiment [5], 48.7 µM; in experiment [6], greater than 78.8 µM. The GI50 in experiment [7] is greater than 33.7 µM; in experiment [8] it was 44.2 µM; in experiment [9], 5.85 µM; in [10] it was 23.1 µM. The TGI in experiment [1], in experiment [2], in experiment [3], in experiment [4], in experiment [5] and in experiment [6] was greater than 100 µM each time. For the same compound, the TGI is greater than 70.8 µM in experiment [7], greater than 100 µM in experiment [8], greater than 100 µM in experiment [9] and greater than 100 µM in experiment [10].

For `COc1ccc(-c2cn(-c3cccc(C(=O)/C=C/c4ccc(O)c(OC)c4)c3)c(=O)[nH]2)cc1`, the GI50 in experiment [1] was 2.6 µM; in [2] it was 2.64 µM; in [3], 3.19 µM; in experiment [4], 1.89 µM; in experiment [5], 4.48 µM; in experiment [6] it was 2.99 µM. The GI50 in [7] is 2.39 µM; in experiment [8], 3.57 µM; in experiment [9] it was 4.03 µM; in experiment [10], 5.85 µM. The TGI in experiment [1] is 10.7 µM; in [2], 32.8 µM; in experiment [3], greater than 62.2 µM; in experiment [4] it was 4.87 µM; in experiment [5], 40.5 µM; in experiment [6], greater than 22.7 µM. Besides, the TGI in [7] was 6.14 µM; in experiment [8], 25.2 µM; in experiment [9], greater than 24.4 µM; in [10] it was 28.6 µM.

With `O=C(O)c1ccc([S-])cc1.[Au+].c1ccc(CN2[CH-]N(Cc3ccccc3)C(c3ccccc3)=C2c2ccccc2)cc1`, the GI50 in experiment [1] is 0.285 µM; in [2], 1.04 µM; in experiment [3] it was 0.417 µM; in [4], 0.301 µM; in experiment [5] it was 0.385 µM; in experiment [6], 0.434 µM. Further, the GI50 in experiment [7] was 0.536 µM; in experiment [8], 0.314 µM; in experiment [9], 0.373 µM; in experiment [10], 0.305 µM. Further, the TGI in experiment [1] amounted to 1.2 µM; in experiment [2] it was 2.55 µM; in experiment [3], 1.46 µM; in experiment [4], 1.26 µM; in experiment [5], 1.61 µM; in experiment [6], 1.58 µM. For the same compound, the TGI in experiment [7] came to 1.88 µM; in experiment [8], 1.21 µM; in experiment [9], 1.3 µM; in [10], 1.13 µM.

For the compound `Cc1cc([N+](=O)[O-])ccc1NS(=O)(=O)c1cc(Cl)ccc1Cl`, the GI50 in experiment [1] is 2.44 µM; in [2], 2.92 µM; in experiment [3], 2.77 µM; in experiment [4], 2.85 µM; in experiment [5] it was 3.66 µM; in experiment [6] it was 3.81 µM. Besides, the GI50 in [7] was 4.28 µM; in experiment [8] it was 3 µM; in [9], 2.42 µM; in experiment [10] it was 2.98 µM. Moreover, the TGI in experiment [1] is 8.68 µM; in experiment [2], 13.1 µM; in [3], 36.6 µM; in experiment [4], 11.9 µM; in [5], 33.4 µM; in experiment [6], greater than 100 µM. Further, the TGI was 18 µM in experiment [7], 9.99 µM in experiment [8], greater than 30.8 µM in experiment [9] and 18.5 µM in experiment [10].

With `O=C(NCCN1CCC(O)CC1)c1cc2c(o1)C(=O)c1ccccc1C2=O`, the GI50 was 0.284 µM in experiment [1]; 0.21 µM in experiment [2]; 0.177 µM in experiment [3]; 0.301 µM in experiment [4]; 0.123 µM in experiment [5]; 0.296 µM in experiment [6]. The GI50 in experiment [7] is 0.208 µM; in [8], 0.0536 µM; in [9] it was 0.182 µM; in experiment [10], 1.1 µM. In addition, the TGI was 1.09 µM in experiment [1]; 0.624 µM in [2]; 0.324 µM in experiment [3]; 1.05 µM in experiment [4]; 0.268 µM in experiment [5]; 3.43 µM in experiment [6]. Moreover, the TGI in experiment [7] was found to be 0.451 µM; in experiment [8] it was 0.257 µM; in experiment [9], 0.436 µM; in [10], 2.32 µM.

On to `CCOC(=O)NC1=C(N2CC2)C(=O)C(NC(=O)OCC)=C(N2CC2)C1=O`, for which the GI50 was 5.95 µM and 4.17 µM in [1]; 11.4 µM and 10.2 µM in experiment [2]; 4.59 µM and 4.37 µM in experiment [4]; 4.91 µM and 4.5 µM in experiment [5]; 14.5 µM and 9.07 µM in experiment [6]; 20 µM and 10.3 µM in experiment [7]. Further, the GI50 in experiment [8] is 2.87 µM and 1.61 µM; in experiment [9], 12.8 µM and 7 µM; in [10], 13 µM and 5.74 µM. The TGI in [1] is 17.5 µM and 9.09 µM and 9.12 µM; in experiment [2], 25 µM and 42.9 µM and 44.2 µM; in experiment [3] it was 7.28 µM; in [4], 15.1 µM and 9.91 µM and 11.8 µM; in experiment [5], 25 µM and 23.7 µM and 31.7 µM; in experiment [6], 25 µM and 47.3 µM and 70.2 µM. Further, the TGI was 25 µM and 23.2 µM and 35 µM in [7]; 15.6 µM and 14.1 µM and 7.55 µM in [8]; 24 µM and 11.8 µM and 17.7 µM in experiment [9]; 25 µM and 14.4 µM and 12.9 µM in experiment [10].
